Results published in patent US8497245B2, “Trypsin-like serine protease inhibitors, their preparation and use as selective inhibitors of the clotting factors IIa and Xa” (The Medicines Company (Leipzig) GmbH, priority 2010, dated 2013).

These compounds were tested against T1, Subcomponent "s" of Human Complement Component 1 (h C1s) (Homo sapiens, UniProt P09871) (assay: Inhibition of human C1s (reference enzyme)). Settings: S-2314 substrate; read-out: Ki h Cls.
T1 construct: purchased Calbiochem
T1 sequence (P09871 438-688 limits assumed): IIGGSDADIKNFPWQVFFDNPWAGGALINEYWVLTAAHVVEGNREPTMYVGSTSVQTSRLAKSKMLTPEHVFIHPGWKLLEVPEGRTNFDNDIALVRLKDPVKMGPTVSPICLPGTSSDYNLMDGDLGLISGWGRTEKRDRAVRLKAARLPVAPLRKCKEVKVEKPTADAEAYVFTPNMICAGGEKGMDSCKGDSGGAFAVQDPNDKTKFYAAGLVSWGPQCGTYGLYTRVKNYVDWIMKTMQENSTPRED
T1 sequence (P09871 16-437 partner limits assumed): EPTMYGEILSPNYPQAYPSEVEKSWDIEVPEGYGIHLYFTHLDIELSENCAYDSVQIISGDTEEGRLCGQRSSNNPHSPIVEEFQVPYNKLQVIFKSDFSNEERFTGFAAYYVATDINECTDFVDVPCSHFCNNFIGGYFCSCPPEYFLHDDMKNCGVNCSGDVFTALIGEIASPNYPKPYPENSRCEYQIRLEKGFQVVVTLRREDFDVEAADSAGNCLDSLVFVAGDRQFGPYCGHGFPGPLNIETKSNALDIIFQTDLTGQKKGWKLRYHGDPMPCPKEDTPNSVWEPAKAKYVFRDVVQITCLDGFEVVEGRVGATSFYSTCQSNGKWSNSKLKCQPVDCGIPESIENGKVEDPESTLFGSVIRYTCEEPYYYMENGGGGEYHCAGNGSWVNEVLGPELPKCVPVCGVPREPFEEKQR
Format: biochemical
Protocol: (§1) The inhibitory effect against the individual purified enzymes was determined in analogy to a previously disclosed method (Stürzebecher et al., J. Med. Chem., 40, 3091-3099 (1997)).
(§2) The release of p-nitroaniline (p-NA, the chromogenic product of the proteolytic activity), was determined by change in absorbance at 405 nm. The equilibrium rates were used to calculate the inhibitor/enzyme dissociation constant (Ki values) by parameter fitting in accordance with the rate equation for competitive inhibition using GraFit (version 4 from Erithacus). The results are reported as Ki values (nanomolar) in table 7 and are the average of at least three determinations.
(§3) Dissociation constants were calculated as described herein.

Ki [µM]	Structure (SMILES)
> 100	CC(=O)N1CCC(CN(C)C(=O)C[C@@H](NS(=O)(=O)Cc2ccccc2)C(=O)N2CCC[C@H]2C(=O)NCc2cc(Cl)ccc2CN)CC1 [Compound 2.17]
> 100	NCc1ccc(Cl)cc1CNC(=O)[C@@H]1C[C@@H](N)CN1C(=O)[C@@H](CCC(=O)N1CCOCC1)NS(=O)(=O)Cc1ccccc1 [Compound 2.25]

Each compound was assayed against T2, Human plasmin (h plasmin) (Homo sapiens, UniProt P00747) (assay: Inhibition of human plasmin (reference enzyme)). Settings: Chromozym PL substrate.
T2 construct: purchased Calbiochem
Format: biochemical
Protocol: as §1, §2, §3

T2 sequence (P00747 581-810 limits assumed): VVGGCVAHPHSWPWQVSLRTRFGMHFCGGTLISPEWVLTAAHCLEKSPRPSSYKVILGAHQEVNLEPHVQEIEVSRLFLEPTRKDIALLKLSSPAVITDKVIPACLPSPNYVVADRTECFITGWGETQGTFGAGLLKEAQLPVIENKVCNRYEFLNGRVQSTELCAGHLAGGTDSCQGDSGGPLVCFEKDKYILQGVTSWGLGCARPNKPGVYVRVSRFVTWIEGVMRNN
T2 sequence (P00747 97-580 partner limits assumed): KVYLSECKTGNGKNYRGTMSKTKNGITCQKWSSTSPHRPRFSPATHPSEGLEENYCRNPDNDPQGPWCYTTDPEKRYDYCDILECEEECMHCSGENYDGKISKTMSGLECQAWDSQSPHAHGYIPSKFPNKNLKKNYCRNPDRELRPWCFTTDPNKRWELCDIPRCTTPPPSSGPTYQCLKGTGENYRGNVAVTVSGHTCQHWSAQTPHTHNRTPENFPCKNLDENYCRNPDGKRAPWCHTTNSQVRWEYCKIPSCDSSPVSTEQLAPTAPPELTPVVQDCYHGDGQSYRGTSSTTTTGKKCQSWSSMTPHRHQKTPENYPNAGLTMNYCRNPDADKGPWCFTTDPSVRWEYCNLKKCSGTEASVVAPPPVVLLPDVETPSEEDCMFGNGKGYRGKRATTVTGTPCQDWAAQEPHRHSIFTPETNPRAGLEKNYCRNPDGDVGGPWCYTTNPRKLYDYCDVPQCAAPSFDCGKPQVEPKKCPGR

Ki [µM]	Structure (SMILES)
> 5	CC(=O)N1CCC(CN(C)C(=O)C[C@@H](NS(=O)(=O)Cc2ccccc2)C(=O)N2CCC[C@H]2C(=O)NCc2cc(Cl)ccc2CN)CC1 [Compound 2.17]
> 10	NCc1ccc(Cl)cc1CNC(=O)[C@@H]1C[C@@H](N)CN1C(=O)[C@@H](CCC(=O)N1CCOCC1)NS(=O)(=O)Cc1ccccc1 [Compound 2.25]

Each compound was assayed against T3, Human urokinase type plasminogen activator (h u-PA) (Homo sapiens, UniProt P00749) (assay: Inhibition of human urokinase type plasminogen activator (reference enzyme)). Settings: H-Glu-Gly-Arg-pNA substrate.
T3 construct: purchased MEDAC GmbH Urokinase HS medac
Format: biochemical
Protocol: as §1, §2, §3

Ki [µM]	Structure (SMILES)
> 40	CC(=O)N1CCC(CN(C)C(=O)C[C@@H](NS(=O)(=O)Cc2ccccc2)C(=O)N2CCC[C@H]2C(=O)NCc2cc(Cl)ccc2CN)CC1 [Compound 2.17]
> 30	NCc1ccc(Cl)cc1CNC(=O)[C@@H]1C[C@@H](N)CN1C(=O)[C@@H](CCC(=O)N1CCOCC1)NS(=O)(=O)Cc1ccccc1 [Compound 2.25]

These compounds were tested against T4, Human tissue-type plasminogen activator (h t-PA) (Homo sapiens, UniProt P00750) (assay: Inhibition of human tissue-type plasminogen activator (reference enzyme)). Settings: Pefachrome tPA substrate; read-out: Ki h t-PA.
T4 construct: purchased Boehringer Ingelheim Actilyse
Format: biochemical
Protocol: The equilibrium rates were used to calculate the inhibitor/enzyme dissociation constant (Ki values) by parameter fitting in accordance with the rate equation for competitive inhibition using GraFit (version 4 from Erithacus).
as §3

T4 sequence (P00750 36-562): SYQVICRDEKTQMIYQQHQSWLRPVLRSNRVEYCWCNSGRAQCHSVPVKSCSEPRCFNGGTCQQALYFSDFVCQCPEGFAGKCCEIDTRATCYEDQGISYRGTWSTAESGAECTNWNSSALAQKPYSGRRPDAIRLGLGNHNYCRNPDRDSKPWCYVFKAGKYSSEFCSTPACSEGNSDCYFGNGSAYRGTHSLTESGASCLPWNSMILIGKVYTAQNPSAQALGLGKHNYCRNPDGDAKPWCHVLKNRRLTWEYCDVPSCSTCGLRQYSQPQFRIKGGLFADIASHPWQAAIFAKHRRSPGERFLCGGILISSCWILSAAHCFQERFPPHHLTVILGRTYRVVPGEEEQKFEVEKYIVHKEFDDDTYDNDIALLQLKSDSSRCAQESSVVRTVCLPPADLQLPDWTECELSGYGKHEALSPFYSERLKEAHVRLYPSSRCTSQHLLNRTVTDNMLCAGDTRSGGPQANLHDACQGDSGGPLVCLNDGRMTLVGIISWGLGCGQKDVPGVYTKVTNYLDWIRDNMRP

Ki [µM]	Structure (SMILES)
> 100	CC(=O)N1CCC(CN(C)C(=O)C[C@@H](NS(=O)(=O)Cc2ccccc2)C(=O)N2CCC[C@H]2C(=O)NCc2cc(Cl)ccc2CN)CC1 [Compound 2.17]
> 50	NCc1ccc(Cl)cc1CNC(=O)[C@@H]1C[C@@H](N)CN1C(=O)[C@@H](CCC(=O)N1CCOCC1)NS(=O)(=O)Cc1ccccc1 [Compound 2.25]

What follows are compounds tested against T5, Subcomponent "r" of Human Complement Component 1 (h C1r) (Homo sapiens, UniProt P00736) (assay: Inhibition of human C1r (reference enzyme)). Settings: S-2314 substrate; read-out: Ki h Clr.
T5 construct: purchased Calbiochem
T5 sequence (P00736 464-705 limits assumed): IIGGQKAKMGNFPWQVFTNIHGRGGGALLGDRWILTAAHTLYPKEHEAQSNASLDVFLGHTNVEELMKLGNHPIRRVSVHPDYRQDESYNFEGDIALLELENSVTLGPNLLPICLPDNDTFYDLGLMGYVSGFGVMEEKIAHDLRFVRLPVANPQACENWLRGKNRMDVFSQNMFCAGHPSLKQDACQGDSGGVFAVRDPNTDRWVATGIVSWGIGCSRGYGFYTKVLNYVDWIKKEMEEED
T5 sequence (P00736 18-463 partner limits assumed): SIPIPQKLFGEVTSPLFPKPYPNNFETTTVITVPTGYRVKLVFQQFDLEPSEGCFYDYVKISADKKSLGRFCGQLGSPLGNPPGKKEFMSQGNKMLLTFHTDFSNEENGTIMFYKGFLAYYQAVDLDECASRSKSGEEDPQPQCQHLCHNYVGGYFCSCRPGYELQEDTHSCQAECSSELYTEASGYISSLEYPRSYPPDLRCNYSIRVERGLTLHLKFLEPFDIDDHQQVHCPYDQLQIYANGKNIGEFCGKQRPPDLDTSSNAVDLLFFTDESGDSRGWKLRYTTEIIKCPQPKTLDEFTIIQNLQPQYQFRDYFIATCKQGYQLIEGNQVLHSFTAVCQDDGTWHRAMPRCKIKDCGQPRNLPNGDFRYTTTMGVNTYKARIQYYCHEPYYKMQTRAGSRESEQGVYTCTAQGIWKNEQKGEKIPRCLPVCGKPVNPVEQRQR
Format: biochemical
Protocol: as §1, §2, §3

Ki [µM]	Structure (SMILES)
> 10	CC(=O)N1CCC(CN(C)C(=O)C[C@@H](NS(=O)(=O)Cc2ccccc2)C(=O)N2CCC[C@H]2C(=O)NCc2cc(Cl)ccc2CN)CC1 [Compound 2.17]
> 20	NCc1ccc(Cl)cc1CNC(=O)[C@@H]1C[C@@H](N)CN1C(=O)[C@@H](CCC(=O)N1CCOCC1)NS(=O)(=O)Cc1ccccc1 [Compound 2.25]

What follows are compounds tested against T6, human factor IIa (human alpha-thrombin) (Homo sapiens, UniProt P00734) (assay: Inhibition constants for human factor IIa, chromogenic substrate assay). Settings: 25° C., Pefachrome tPA substrate, average of at least three determinations; read-out: Ki h FIIa.
T6 construct: human alpha-thrombin from Enzyme Research Laboratories; purchased Enzyme Research Laboratories
Format: biochemical
Protocol: as §1
(§4) 200 μL of TBS (0.05 M trishydroxymethylaminomethane; 0.154 M NaCl, 2% ethanol, pH 8.0)
as §2

Ki [µM]	Structure (SMILES)
0.0002	CC(=O)N1CCC(CN(C)C(=O)C[C@@H](NS(=O)(=O)Cc2ccccc2)C(=O)N2CCC[C@H]2C(=O)NCc2cc(Cl)ccc2CN)CC1 [Compound 2.17]
0.0047	NCc1ccc(Cl)cc1CNC(=O)[C@@H]1C[C@@H](N)CN1C(=O)[C@@H](CCC(=O)N1CCOCC1)NS(=O)(=O)Cc1ccccc1 [Compound 2.25]

Each compound was assayed against T7, Human Activated Protein C (h aPC) (Homo sapiens, UniProt P04070) (assay: Inhibition of human activated protein C (reference enzyme)). Settings: Pefachrome PCa substrate.
T7 construct: purchased Enzyme Research Laboratories
Format: biochemical
Protocol: as §1, §2, §3

T7 sequence (P04070 212-450 limits assumed): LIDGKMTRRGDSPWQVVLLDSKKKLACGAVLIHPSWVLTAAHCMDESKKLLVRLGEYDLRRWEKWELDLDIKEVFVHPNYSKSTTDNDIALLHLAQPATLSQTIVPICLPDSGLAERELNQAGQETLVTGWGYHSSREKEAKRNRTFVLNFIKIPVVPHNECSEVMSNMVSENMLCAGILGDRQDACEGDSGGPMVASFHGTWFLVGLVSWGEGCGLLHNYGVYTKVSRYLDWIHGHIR
T7 sequence (P04070 43-197 partner limits assumed): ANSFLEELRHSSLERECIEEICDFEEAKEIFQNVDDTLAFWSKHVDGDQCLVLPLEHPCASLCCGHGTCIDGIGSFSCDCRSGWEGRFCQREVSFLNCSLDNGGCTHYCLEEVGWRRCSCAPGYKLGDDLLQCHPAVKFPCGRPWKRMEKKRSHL

Ki [µM]	Structure (SMILES)
> 40	CC(=O)N1CCC(CN(C)C(=O)C[C@@H](NS(=O)(=O)Cc2ccccc2)C(=O)N2CCC[C@H]2C(=O)NCc2cc(Cl)ccc2CN)CC1 [Compound 2.17]
> 100	NCc1ccc(Cl)cc1CNC(=O)[C@@H]1C[C@@H](N)CN1C(=O)[C@@H](CCC(=O)N1CCOCC1)NS(=O)(=O)Cc1ccccc1 [Compound 2.25]

Each compound was assayed against T8, Human plasma kallikrein (h PK) (Homo sapiens, UniProt P03952) (assay: Inhibition of human plasma kallikrein (reference enzyme)). Settings: S2302 substrate.
T8 construct: purchased Enzyme Research Laboratories
Format: biochemical
Protocol: as §1, §2, §3

T8 sequence (P03952 391-638 limits assumed): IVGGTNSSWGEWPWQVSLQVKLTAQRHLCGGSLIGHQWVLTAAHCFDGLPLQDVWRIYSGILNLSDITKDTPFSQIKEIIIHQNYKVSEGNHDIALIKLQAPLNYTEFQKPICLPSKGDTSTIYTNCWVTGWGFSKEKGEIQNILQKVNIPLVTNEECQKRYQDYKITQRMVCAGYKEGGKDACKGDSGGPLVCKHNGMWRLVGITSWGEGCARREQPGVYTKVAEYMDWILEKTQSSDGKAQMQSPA
T8 sequence (P03952 20-390 partner limits assumed): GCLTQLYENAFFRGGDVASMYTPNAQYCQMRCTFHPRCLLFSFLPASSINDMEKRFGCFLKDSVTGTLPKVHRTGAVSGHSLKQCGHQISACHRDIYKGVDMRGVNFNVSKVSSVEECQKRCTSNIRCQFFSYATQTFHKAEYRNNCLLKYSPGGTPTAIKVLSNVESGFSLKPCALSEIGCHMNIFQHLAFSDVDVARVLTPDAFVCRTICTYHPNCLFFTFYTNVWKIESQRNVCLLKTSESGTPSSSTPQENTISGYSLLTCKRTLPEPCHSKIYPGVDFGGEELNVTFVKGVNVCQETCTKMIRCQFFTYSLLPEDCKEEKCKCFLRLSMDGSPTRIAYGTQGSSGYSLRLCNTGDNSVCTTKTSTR

Ki [µM]	Structure (SMILES)
0.417	CC(=O)N1CCC(CN(C)C(=O)C[C@@H](NS(=O)(=O)Cc2ccccc2)C(=O)N2CCC[C@H]2C(=O)NCc2cc(Cl)ccc2CN)CC1 [Compound 2.17]
2.58	NCc1ccc(Cl)cc1CNC(=O)[C@@H]1C[C@@H](N)CN1C(=O)[C@@H](CCC(=O)N1CCOCC1)NS(=O)(=O)Cc1ccccc1 [Compound 2.25]

These compounds were tested against T9, Human urinary kallikrein (h uKK) (Homo sapiens, UniProt P06870) (assay: Inhibition of human urinary kallikrein (reference enzyme)). Settings: S-2266 substrate.
T9 construct: purchased Lee Biosolutions
Format: biochemical
Protocol: as §1, §2, §3

T9 sequence (P06870 25-262): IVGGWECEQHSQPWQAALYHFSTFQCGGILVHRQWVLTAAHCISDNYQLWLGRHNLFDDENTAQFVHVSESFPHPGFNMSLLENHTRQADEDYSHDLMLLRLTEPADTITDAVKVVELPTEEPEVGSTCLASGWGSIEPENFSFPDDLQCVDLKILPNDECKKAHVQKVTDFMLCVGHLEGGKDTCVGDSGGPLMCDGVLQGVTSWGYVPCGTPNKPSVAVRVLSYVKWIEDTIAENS

Ki [µM]	Structure (SMILES)
> 20	CC(=O)N1CCC(CN(C)C(=O)C[C@@H](NS(=O)(=O)Cc2ccccc2)C(=O)N2CCC[C@H]2C(=O)NCc2cc(Cl)ccc2CN)CC1 [Compound 2.17]
> 50	NCc1ccc(Cl)cc1CNC(=O)[C@@H]1C[C@@H](N)CN1C(=O)[C@@H](CCC(=O)N1CCOCC1)NS(=O)(=O)Cc1ccccc1 [Compound 2.25]

The compounds below were run against T10, human Factor Xa (Homo sapiens, UniProt P00742) (assay: Inhibition constants for human factor Xa, chromogenic substrate assay). Settings: 25° C., Pefachrome FXa substrate, average of at least three determinations; read-out: Ki h FXa.
T10 construct: human Factor Xa from Enzyme Research Laboratories; purchased Enzyme Research Laboratories
Format: biochemical
Protocol: as §1, §4, §2

T10 sequence (P00742 235-488 limits assumed): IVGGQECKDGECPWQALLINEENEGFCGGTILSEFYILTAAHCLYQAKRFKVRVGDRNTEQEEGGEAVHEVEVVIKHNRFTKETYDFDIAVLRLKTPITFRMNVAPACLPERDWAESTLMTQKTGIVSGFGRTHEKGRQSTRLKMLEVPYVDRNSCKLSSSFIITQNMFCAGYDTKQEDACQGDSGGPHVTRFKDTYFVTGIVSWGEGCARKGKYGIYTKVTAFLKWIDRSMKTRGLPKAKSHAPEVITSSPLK
T10 sequence (P00742 41-179 partner limits assumed): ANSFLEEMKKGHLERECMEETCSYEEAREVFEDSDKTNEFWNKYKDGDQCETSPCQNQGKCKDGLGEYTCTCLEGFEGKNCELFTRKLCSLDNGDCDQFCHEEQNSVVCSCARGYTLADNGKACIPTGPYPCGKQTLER

Ki [µM]	Structure (SMILES)
0.0037	CC(=O)N1CCC(CN(C)C(=O)C[C@@H](NS(=O)(=O)Cc2ccccc2)C(=O)N2CCC[C@H]2C(=O)NCc2cc(Cl)ccc2CN)CC1 [Compound 2.17]
0.0011	NCc1ccc(Cl)cc1CNC(=O)[C@@H]1C[C@@H](N)CN1C(=O)[C@@H](CCC(=O)N1CCOCC1)NS(=O)(=O)Cc1ccccc1 [Compound 2.25]
